Data published in patent publication US20030149088A1, “HIV treatment” (priority 2000, published 2003).
“And” between values parts separate entries of the source, which are not always exact repeats. Equal values may be shown once.

Key:
HIV = assay: microbe, parasite or virus in culture; format: cell-based; details: in vitro acute model
HIV virus, ROJO in PBMC = assay: Reverse transcriptase activity against ROJO in PBMC; format: cell-based; parameters: Reverse Transcriptase Activity, Sample 1-3 / Reverse Transcriptase Activity, Mean: unit not given here; details: for Reverse Transcriptase Activity, Sample 1-3: individual samples
[1] = test system: Chronic HIV-1 infected cells U1; assay: Chronic HIV study, HIV replication in monocytes (U1 cells); format: cell-based
Protocol: (§1) Chronic HIV-1 infected cells U1 were derived from an acute HIV-1 infection of the promonocytic cell line, U937. The chronic HIV-1 infected cells, ACH-2 were derived from an acute HIV-1 infection of the T cell line, A3.01.
(§2) These cells were cultured in medium and the phorbol ester, PMA. PMA causes the cells (both U1 and ACH-2) to be activated and not divide but it also causes the U-1 cells to differentiate. […] Cell viability was measured when these cell lines were treated with the test compound.
(§3) Both cell lines constituitively produce a small amount of HIV-1. ACH-2 cell lines tend to produce more HIV-1 than U1 cells as shown by p-24 ELISA. When either cell line is cultured in the presence of PMA there is an increase in the quantity of HIV-1 produced as measured by the p-24 antigen ELISA.
(§4) In addition, the number of […] positive HIV mRNA expressing cells per microscopic field is measured. Comparisons can be made from these numbers since the same number of cells were adhered to the glass slides for each drug concentration (10×10^6 cells/ml).

[2] = test system: chronic HIV-1 infected cells, ACH-2; assay: Chronic HIV study, T-cell HIV replication (ACH-2 cells); format: cell-based; details: increase, not suppression
Protocol: as §1, §2, §3, §4

PBMC = assay: Toxicity values, XTT-based evaluation (cell titer O.D.), ROJO in PBMC; details: for Toxicity Values (Cell titer), Sample 1-3: individual samples

## c1ccc2[nH]c(-c3cscn3)nc2c1 [2-(4-thiazolyl)-1H-benzimidazole]
HIV; Human immunodeficiency virus 1, at 60 μg/ml, read-out: inhibited viral replication
  inhibition at 60 µg/mL: 98%

## Cc1cn([C@H]2C[C@H](N=[N+]=[N-])[C@@H](CO)O2)c(=O)[nH]c1=O [AZT, reference compound]
HIV virus, ROJO in PBMC; 0.0004 μg/ml
  Reverse Transcriptase Activity, % virus control: 101.5%
  Reverse Transcriptase Activity, Sample 1-3: 1.043 and 0.966 and 1.143
HIV virus, ROJO in PBMC; 0.0013 μg/ml
  Reverse Transcriptase Activity, % virus control: 101.4%
HIV virus, ROJO in PBMC; 0.004 μg/ml
  Reverse Transcriptase Activity, % virus control: 98.5%
  Reverse Transcriptase Activity, Mean: 1.019
  Reverse Transcriptase Activity, Sample 1-3: 1.005 and 1.004 and 1.048
HIV virus, ROJO in PBMC; 0.013 μg/ml
  Reverse Transcriptase Activity, % virus control: 101.2%
  Reverse Transcriptase Activity, Sample 1-3: 1.024 and 1.061 and 1.056
HIV virus, ROJO in PBMC; 0.04 μg/ml
  Reverse Transcriptase Activity, % virus control: 0.7%
  Reverse Transcriptase Activity, Mean: 168
  Reverse Transcriptase Activity, Sample 1-3: 176 and 108 and 220
HIV virus, ROJO in PBMC; 0.13 μg/ml
  Reverse Transcriptase Activity, % virus control: 0.5%
  Reverse Transcriptase Activity, Mean: 110.7
  Reverse Transcriptase Activity, Sample 1-3: 108 and 168 and 56
HIV virus, ROJO in PBMC; 0.4 μg/ml
  Reverse Transcriptase Activity, % virus control: 0.7%
  Reverse Transcriptase Activity, Mean: 172
  Reverse Transcriptase Activity, Sample 1-3: 340 and 80 and 96
HIV virus, ROJO in PBMC; 1.3 μg/ml
  Reverse Transcriptase Activity, % virus control: .04%
  Reverse Transcriptase Activity, Mean: 93.3
  Reverse Transcriptase Activity, Sample 1-3: 68 and 120 and 92
HIV virus, ROJO in PBMC; 4 μg/ml
  Reverse Transcriptase Activity, % virus control: 0.4%
  Reverse Transcriptase Activity, Mean: 98.7
  Reverse Transcriptase Activity, Sample 1-3: 108 and 104 and 84
HIV; at 1 μg/ml
  inhibited viral replication: 98%

## COC(=O)Nc1nc2ccccc2[nH]1 [Carbendazim, 2-(methoxycarbonylamino)benzimidazole]
HIV virus, ROJO in PBMC; 0.01 μg/ml
  Reverse Transcriptase Activity, % virus control: 110.4%
  Reverse Transcriptase Activity, Mean: 26107
  Reverse Transcriptase Activity, Sample 1-3: 24174 and 32124 and 22024
HIV virus, ROJO in PBMC; 0.032 μg/ml
  Reverse Transcriptase Activity, % virus control: 96.6%
  Reverse Transcriptase Activity, Mean: 22851
  Reverse Transcriptase Activity, Sample 1-3: 23225 and 17108 and 19000
HIV virus, ROJO in PBMC; 0.1 μg/ml
  Reverse Transcriptase Activity, % virus control: 74.1%
  Reverse Transcriptase Activity, Mean: 17513
  Reverse Transcriptase Activity, Sample 1-3: 1394.0 and 16747 and 12569
HIV virus, ROJO in PBMC; 0.32 μg/ml
  Reverse Transcriptase Activity, % virus control: 47.1%
  Reverse Transcriptase Activity, Mean: 11143
  Reverse Transcriptase Activity, Sample 1-3: 200 and 8787 and 11249
HIV virus, ROJO in PBMC; 1 μg/ml
  Reverse Transcriptase Activity, % virus control: 3.7%
  Reverse Transcriptase Activity, Mean: 885.3
  Reverse Transcriptase Activity, Sample 1-3: 1394 and 685.0 and 577.0
HIV virus, ROJO in PBMC; 3.2 μg/ml
  Reverse Transcriptase Activity, % virus control: 0.6%
  Reverse Transcriptase Activity, Mean: 138.7
  Reverse Transcriptase Activity, Sample 1-3: 200 and 100 and 116
HIV virus, ROJO in PBMC; 10 μg/ml
  Reverse Transcriptase Activity, % virus control: 0.6%
  Reverse Transcriptase Activity, Mean: 153.3
  Reverse Transcriptase Activity, Sample 1-3: 136 and 216 and 108
HIV virus, ROJO in PBMC; 32 μg/ml
  Reverse Transcriptase Activity, % virus control: 0.6%
  Reverse Transcriptase Activity, Mean: 130.7
  Reverse Transcriptase Activity, Sample 1-3: 124 and 180 and 88.0
HIV virus, ROJO in PBMC; 100 μg/ml
  Reverse Transcriptase Activity, % virus control: 0.5%
  Reverse Transcriptase Activity, Mean: 122.7
  Reverse Transcriptase Activity, Sample 1-3: 132 and 84.0 and 152.0
[1]
  suppressed replication in the HIV monocytes: 9%
[2]
  T-cell HIV replication was increased: 44%
HIV; Human immunodeficiency virus 1, at 4 μg/ml, read-out: inhibited viral replication
  inhibition at 4 µg/mL: 100%
PBMC; 0.01 μg/ml
  Toxicity Values (Cell titer), Mean: 1.138 O.D. @ 490/650 nm
  Toxicity Values, % cell control: 109.9%
  Toxicity Values (Cell titer), Sample 1-3: 1.115 O.D. @ 490/650 nm and 1.180 O.D. @ 490/650 nm and 1.118 O.D. @ 490/650 nm
PBMC; 0.032 μg/ml
  Toxicity Values (Cell titer), Mean: 1.182 O.D. @ 490/650 nm
  Toxicity Values, % cell control: 114.2%
  Toxicity Values (Cell titer), Sample 1-3: 1.143 O.D. @ 490/650 nm and 1.198 O.D. @ 490/650 nm and 1.204 O.D. @ 490/650 nm
PBMC; 0.1 μg/ml
  Toxicity Values (Cell titer), Mean: 1.157 O.D. @ 490/650 nm
  Toxicity Values, % cell control: 111.8%
  Toxicity Values (Cell titer), Sample 1-3: 1.145 O.D. @ 490/650 nm and 1.080 O.D. @ 490/650 nm and 1.246 O.D. @ 490/650 nm
PBMC; 0.32 μg/ml
  Toxicity Values (Cell titer), Mean: 1.049 O.D. @ 490/650 nm
  Toxicity Values, % cell control: 101.4%
  Toxicity Values (Cell titer), Sample 1-3: 1.031 O.D. @ 490/650 nm and 1.050 O.D. @ 490/650 nm and 1.067 O.D. @ 490/650 nm
PBMC; 1 μg/ml
  Toxicity Values (Cell titer), Mean: 1.004 O.D. @ 490/650 nm
  Toxicity Values, % cell control: 97.0%
  Toxicity Values (Cell titer), Sample 1-3: 1.019 O.D. @ 490/650 nm and 1.003 O.D. @ 490/650 nm and 0.991 O.D. @ 490/650 nm
PBMC; 3.2 μg/ml
  Toxicity Values (Cell titer), Mean: 0.992 O.D. @ 490/650 nm
  Toxicity Values, % cell control: 95.8%
  Toxicity Values (Cell titer), Sample 1-3: 1.013 O.D. @ 490/650 nm and 1.003 O.D. @ 490/650 nm and 0.959 O.D. @ 490/650 nm
PBMC; 10 μg/ml
  Toxicity Values (Cell titer), Mean: 0.944 O.D. @ 490/650 nm
  Toxicity Values, % cell control: 91.2%
  Toxicity Values (Cell titer), Sample 1-3: 1.001 O.D. @ 490/650 nm and 0.858 O.D. @ 490/650 nm and 0.973 O.D. @ 490/650 nm
PBMC; 32 μg/ml
  Toxicity Values (Cell titer), Mean: 0.845 O.D. @ 490/650 nm
  Toxicity Values, % cell control: 81.6%
  Toxicity Values (Cell titer), Sample 1-3: 0.864 O.D. @ 490/650 nm and 0.835 O.D. @ 490/650 nm and 0.836 O.D. @ 490/650 nm
PBMC; 100 μg/ml
  Toxicity Values (Cell titer), Mean: 0.807 O.D. @ 490/650 nm
  Toxicity Values, % cell control: 77.9%
  Toxicity Values (Cell titer), Sample 1-3: 0.839 O.D. @ 490/650 nm and 0.782 O.D. @ 490/650 nm and 0.799 O.D. @ 490/650 nm
